Counter-ions that a name gives are not always drawn.
How the values were obtained:
[1] = system: IE2 negative feedback (MIEP-IE2-IRES-GFP construct, LM2ig); assay: IE2 negative feedback reporter: cells harboring LM2ig (MIEP-IE2-IRES-GFP), GFP by flow cytometry; format: cell-based, human CMV (hCMV)
Procedure: (§1) MRCS fibroblasts and life-extended human foreskin fibroblasts (HFFs) (Bresnahan and Shenk, 2000) were maintained in Dulbecco's Modified Eagle's Medium (DMEM) supplemented with 10% fetal bovine serum (FBS) and 50 U/ml penicillin-streptomycin at 37° C. and 5% CO2 in a humidified incubator. ARPE-19 cells were maintained in a 1:1 mixture of DMEM/F-12 (Mediatech Inc.) with 10% FBS (HyClone) and 50 U/ml Penicillin-Streptomycin (Mediatech Inc.). Cells were treated with a final concentration of 1 mM valproic acid (VPA) (Calbiochem™), resuspended in dimethylsulfoxide, for approximately 24 hours before imaging. Cells were treated with a final concentration of 400 nM TSA (Sigma-Aldrich) resuspended in dimethylsulfoxide, for 20-24 hours, a final concentration of 10 ng/mL TNF-α (Sigma-Aldrich) resuspended in phosphate-buffered saline (PBS), or a final concentration of 1 mM VPA (Calbiochem) for approximately 24 hours before imaging.
(§2) Standard lentiviral cloning was used to create minimal major immediate early (MIE) circuits (Dull et al., 1998). The minimal MIEP-IE2-GFP and MIEP-GFP circuits are driven by a full-length ˜2.5 kb MIE promoter-enhancer (MIEP) that spans the sequence from the MIEP modulator at the 5′ edge to the junction of immediate early (IE) exons 1 and 2. The MIEP was polymerase chain reaction (PCR)-cloned from AD169 into pLEIGW in place of the EF1a promoter. This full-length MIEP drives an IE2-IRES-GFP or mCherry-IRES-GFP cassette. IE2 was cloned from pRSV-IE86 (a gift from Jay Nelson). ARPE-19 cells were infected and fluorescence-activated cell sorter (FACS) sorted for green fluorescent protein (GFP) fluorescence to create stably expressing cell lines. Cells were treated with Trichostatin-A (TSA) for 17 hours, and GFP expression was quantified by flow cytometry. Live cells were gated by forward-versus-side scattering on a FacsCalibur™ cytometer (BD Biosciences) and mean fluorescence intensity recorded. At least 20,000 live cells were recorded for each experiment and data was analyzed in FlowJo™ (Treestar Inc.).
See WO 2014/127148 for descriptions of MIEP-IE2-reporter constructs. For example, LM2ig construct is depicted in FIG. 7 of WO 2014/127148.

[2] = system: ARPE-19 cells stably transduced with LM2ig; assay: Viability of ARPE-19 cells stably transduced with LM2ig; format: cell-based; conditions: FIG. 1, FIG. 2
Procedure: as §1, §2

[3] = system: IE2 negative feedback (LM2ig "low" cells); assay: LM2ig "low" drug screen (4 day induction, high throughput flow cytometry); format: cell-based, human CMV (hCMV); conditions: induction period of 4 days, FIG. 9
Procedure: LM2ig “low” cells (˜0% GFP positive before induction) were treated with agents in duplicate for an induction period of 4 days. During this induction period, the cell culture medium was not changed; images were taken every day for 4 days. On the final day, high throughput flow cytometry was carried out on FACS IntelliCyt. Agents tested were: Hoechst 33258, Hoechst 33342, VPA, TSA, TNF-α, hexamethylene bisacetamide (HMBA), phorbol myristate acetate (PMA), neotroposin, distamycin, DAPI, gemcitabine, prednisolone, suberanilohydroxamic acid (SAHA), (2E)-N-hydroxy-3-[4-({[2-(2-methyl-1H-indol-3-yl)ethyl]amino}methyl)phenyl]acrylamide (panobinostat), thapsigargin, JQ1, prostratin, dimizane acetate, pentamidine, or bendamustine.

Rhesus CMV (RhCMV) = assay: Rhesus CMV viral replication kinetics on rhesus fibroblast cells; format: cell-based, rhesus monkey
Procedure: Murine CMV (MCMV) replication kinetics were performed in BALB/c mice using the Smith strain of MCMV as previously described (Orr et al., 2010) and on NIH 3T3 cells using same methods as for HCMV. Rhesus CMV (RhCMV) viral replication kinetics were performed on rhesus fibroblast cells as described in (Lilja et al., 2008).

[4] = system: CRS sequences (tetranucleotide motif TTTA); assay: bisBenzimide binding assay (fluorescence) with CRS sequences; parameters: species or system hCMV; conditions: CRS sequence 10 μM, BB33258 10 μM to 1 nM, room temperature, DPBS; FIGS. 15 and 16; trihydrochloride hydrate
Procedure: Serial dilutions for each CRS sequence were prepared. Each CRS sequence was held constant at 10 μM while BB33258 was titrated from 10 μM to 1 nM. All assays were performed at room temperature (˜25° C. in DPBS). Serial dilutions were pipetted into 96-well glass bottom plate and allowed to equilibrate for 3 hours at room temperature in the dark. Plates were then assayed for fluorescence intensity using Perkin-Elmer EnSpyre multimode plate reader. Scans from 370 nm to 580 nm for each sequence were obtained. Dilution concentrations and BB33258 combinations that saturated the PMT were excluded.

[5] = system: DNA CRS target with purified IE2 protein; assay: Gel shift assay (EMSA) of IE2-CRS; format: binding; conditions: various amounts of BB33258; FIG. 20
Procedure: IE2-MBP expressed in BL21 cells was purified using amylose column, and EMSA was performed for IE2-crs interaction as described in Macias, M. P., Stinski, M. F., 1993. PNAS. 90, 707-711.

[6] = system: IE2 circuit in clinically derived CMV isolate TB40E; assay: Flow cytometry of TB40E infected ARPE cells; format: cell-based, human CMV (hCMV); conditions: 17 h and 20 h post infection, FIG. 21
Procedure: Flow cytometry was performed on TB40E infected ARPE cells at 17 h and 20 h post infection. The data was analyzed as described in Teng et al. Cell 2012, cited herein.

HCMV = HCMV infection across a range of virus concentrations, 10 days post-infection; format: cell-based, human CMV (hCMV); conditions: wide range of virus concentrations, FIG. 23
Text: All time points were taken at 10 days post-infection as described in Teng et al. Cell 2012 (cited herein).

## CN1CCN(c2ccc3[nH]c(-c4ccc5[nH]c(-c6ccc(O)cc6)nc5c4)nc3c2)CC1 [Hoechst 33258, 2′-(4-hydroxyphenyl)-5-(4-methyl-1-piperazinyl)-2,5′-bi-1H-benzimidazole trihydrochloride hydrate]
[1]; 24-28 hour exposure
  breaking of the IE2 negative feedback circuit: breaks the IE2 negative feedback circuit
[1]; ARPE-19 cells harboring LM2ig, 20 μM Hoechst 33258, FACS, FIG. 4 upper panel
  quiescent MIEP-driven expression in a reporter cell line: activated quiescent MIEP-driven expression
[1]; ARPE-19 cells harboring LM2ig, Hoechst 33258 with or without VPA, FIG. 7
  number of GFP-positive cells: induced an increase
[1]; ARPE-19 cells harboring LM2ig, Hoechst 33258 with or without VPA, FIG. 8
  mean fluorescence intensity (MFI): increased MFI
[1]; ARPE-19 cells stably transduced with LM2ig, FIG. 1, FIG. 2
  production of IE2, as measured by GFP expression (GFP mean fluorescence intensity; GFP-MFI): increased production of IE2
[1]; Hoechst 33258: after 24 hours
  reactivation of the LM2ig minimal circuit: strongly reactivates
[1]; long-term (e.g., 8-10 days) exposure
  breaking of the circuit and reactivation of the promoter from an off (silenced) state: breaks the circuit and reactivates the promoter
[2]
  cell viability / cytotoxicity: reduced cell viability
[3]
  breaking of the IE2 negative feedback (geometric mean of GFP): specifically break the IE2 negative feedback
Rhesus CMV (RhCMV); DIC imaging, rhCMV-infected cells
  cytopathic effect (CPE) and plaque formation: reduced cytopathic effect (CPE) and plaque formation
Rhesus CMV (RhCMV); FIG. 11
  rhCMV replication: inhibited rhCMV replication to an extent similar to Hoechst 33258 inhibition of hCMV replication
Rhesus CMV (RhCMV); FIG. 12
  inhibitory effect on rhCMV replication at various MOI and after multiple rounds of replication: remains both at high MOI and also after multiple rounds of replication
[4]
  DNA binding specificity (motif): binds primarily to a specific tetranucleotide motif (TTTA)
[5]
  binding to the CRS sequence (EMSA): binding
[6]
  IE2 circuit / IE2 expression levels: breaks the IE2 circuit and amplifies IE2 expression levels
HCMV
  HCMV infection: inhibits HCMV infection across a wide range of virus concentrations

From patent US10478431B2, “Methods for treating a cytomegalovirus infection” (priority 2014, dated 2019)
